{"source": "patent US4017534A", "about": "“16-Fluoro-11-deoxy-13-dihydro-prostaglandin” (American Cyanamid Company, priority 1975, dated 1977)", "key": {"[1]": {"test_system": "bronchospasms elicited by 5-hydroxytryptamine", "experiment": "Bronchodilator activity (intraduodenal route) against 5-hydroxytryptamine", "format": "in vivo, guinea pigs", "set-up": "key: 0: no activity; +: minimal activity; ++++: maximum activity", "conditions": "intraduodenal dose 3.2 mg./kg.", "procedure": "(§1) The compounds of this invention are useful as bronchodilators for the treatment of asthma and chronic bronchitis. Bronchodilator activity is determined in guinea pigs against bronchospasms elicited by intravenous injections of 5-hydroxytryptamine, histamine or acetylcholine by the Konzett procedure. [See J. Lulling, P. Lievens, F. El Sayed and J. Prignot, Arzneimittel-Forschung, 18, 995 (1968).]\n(§2) In Table A' which follows bronchodilator activity for representative compounds of this invention against one or more of three spasmogenic agents is reported. In this assay candidate compounds are suspended in 10% gum arabic solution and the suspension is administered by the intraduodenal route. The activity of the compound at any one dose is then investigated throughout the following hour (see above-cited reference, J. Lulling et al.). Potency is then reported as O, +, ++, +++, or ++++, wherein 0 represents no activity, + minimal activity and ++++ maximum activity."}, "[2]": {"test_system": "bronchospasms elicited by acetylcholine", "experiment": "Bronchodilator activity (intraduodenal route) against acetylcholine", "format": "in vivo, guinea pigs", "set-up": "key: 0: no activity; +: minimal activity; ++++: maximum activity", "conditions": "intraduodenal dose 3.2 mg./kg.", "procedure": "as §1, §2"}}, "data": [{"smiles": "CCCCC[C@H](O)CC[C@H]1CCC2(OCCCO2)[C@@H]1CCCCCCC(=O)O", "note": "[l-15(S)-hydroxy-9,9-(propylenedioxy)-prostanoic acid]", "values": [{"measurement": "Bronchodilator potency, Spasmogenic Agent 5-Hydroxytryptamine", "setting": "[1]", "result": "+"}, {"measurement": "Bronchodilator potency, Spasmogenic Agent Acetylcholine", "setting": "[2]", "result": "+"}]}]}
